pIC50: −log10 of the molar value. Structures can show the parent of a compound that is named as a salt.
tested on: NLRP3; test: THP-1 cells pyroptosis assay (LPS/nigericin, resazurin read-out); assay type: cell-based; settings: Homo sapiens, THP-1, read-out: THP IC50
Description: THP-1 cells (ATCC #TIB-202) were grown in RPMI containing L-glutamine (Gibco #11835) supplemented with 1 mM sodium pyruvate (Sigma #S8636) and penicillin (100 units/ml)/streptomycin (0.1 mg/ml) (Sigma #P4333) in 10% Fetal Bovine Serum (FBS) (Sigma #F0804). The cells were routinely passaged and grown to confluency (˜10^6 cells/ml). On the day of the experiment, THP-1 cells were harvested and resuspended into RPMI medium (without FBS). The cells were then counted and viability (>90%) checked by Trypan blue (Sigma #T8154). Appropriate dilutions were made to give a concentration of 625,000 cells/ml. To this diluted cell solution was added LPS (Sigma #L4524) to give a 1 μg/ml Final Assay Concentration (FAC). 40 μl of the final preparation was aliquoted into each well of a 96-well plate. The plate thus prepared was used for compound screening.
The following method step-by-step assay was followed for compound screening. • 1. Seed THP-1 cells (25,000 cells/well) containing 1.0 μg/ml LPS in 40 μl of RPMI medium (without FBS) in 96-well, black walled, clear bottom cell culture plates coated with poly-D-lysine (VWR #734-0317) • 2. Add 5 μl compound (8 points half-log dilution, with 10 μM top dose) or vehicle (DMSO 0.1% FAC) to the appropriate wells • 3. Incubate for 3 hrs at 37° C., 5% CO2 • 4. Add 5 μl nigericin (Sigma #N7143) (FAC 5 μM) to all wells • 5. Incubate for 1 hr at 37° C., 5% CO2 • 6. At the end of the incubation period, spin plates at 300×g for 3 mins and remove supernatant • 7. Then add 50 μl of resazurin (Sigma #R7017) (FAC 100 μM resazurin in RPMI medium without FBS) and incubate plates for a further 1-2 hrs at 37° C. and 5% CO2 • 8. Plates were read in an Envision reader at Ex 560 nm and Em 590 nm • 9. IC50 data is fitted to a non-linear regression equation (log inhibitor vs response-variable slope 4-parameters) 96-Well Plate Map

Compound | pIC50
COc1cc(-c2ccc3c(c2CC(=O)NS(=O)(=O)N(C)C2CCN(C)C2)CCC3)ccn1 (centres unmarked) [Example 1, 2-(5-(2-Methoxypyridin-4-yl)-2,3-dihydro-1H-inden-4-yl)-N—(N-methyl-N-(1-methylpyrrolidin-3-yl)sulfamoyl)acetamide, Potassium Salt] | > 5.30
CCN(CC)CCCS(=O)(=O)NC(=O)Cc1c(-c2ccnc(OC)c2)cc(F)cc1C(C)C [Example 3, N-((3-(Diethylamino)propyl)sulfonyl)-2-(4-fluoro-2-isopropyl-6-(2-methoxypyridin-4-yl)phenyl)acetamide, Potassium Salt] | > 5.30
COc1cc(-c2cc(F)cc(C(C)C)c2CC(=O)NS(=O)(=O)C[C@]23CCC(CC2=O)C3(C)C)ccn1 [Example 7, N-((((1S)-7,7-Dimethyl-2-oxobicyclo[2.2.1]heptan-1-yl)methyl)sulfonyl)-2-(4-fluoro-2-isopropyl-6-(2-methoxypyridin-4-yl)phenyl)acetamide, Potassium Salt] | > 5.00
COc1cc(-c2cc(F)cc(C(C)C)c2CC(=O)NS(=O)(=O)N(C)C2CCN(C)C2)ccn1 (centres unmarked) [Example 8, 2-(4-Fluoro-2-isopropyl-6-(2-methoxypyridin-4-yl)phenyl)-N—(N-methyl-N-(1-methylpyrrolidin-3-yl)sulfamoyl)acetamide, Potassium Salt] | > 5.30
COc1cc(-c2cc(F)cc(C(C)C)c2CC(=O)NS(=O)(=O)C[C@@]23CC[C@@H](C[C@H]2O)C3(C)C)ccn1 [Example 9, 2-(4-Fluoro-2-isopropyl-6-(2-methoxypyridin-4-yl)phenyl)-N-((((1R,2R,4S)-2-hydroxy-7,7-dimethylbicyclo[2.2.1]heptan-1-yl)methyl)sulfonyl)acetamide, Potassium Salt] | > 5.30
COc1cc(-c2cc(F)cc(C(C)C)c2CC(=O)NS(=O)(=O)CCCC(C)(C)O)ccn1 [Example 10, 2-(4-Fluoro-2-isopropyl-6-(2-methoxypyridin-4-yl)phenyl)-N-((4-hydroxy-4-methylpentyl)sulfonyl)acetamide, Potassium Salt] | > 5.00

same assay, conditions: Homo sapiens; THP-1 cells, 1 μg/ml LPS, 3 hrs compound, 5 μM nigericin 1 hr; NLRP3 inhibitory activity; read-out: THP IC50

pIC50 | Compound
> 5.00 | CCN(CC)CCCS(=O)(=O)NC(=O)Cc1c(-c2ccnc(OC)c2)ccc2c1CCC2 [Example 2, N-((3-(Diethylamino)propyl)sulfonyl)-2-(5-(2-methoxypyridin-4-yl)-2,3-dihydro-1H-inden-4-yl)acetamide]
> 5.00 | CCN(CC)CCCS(=O)(=O)NC(=O)Cc1c2c(cc3c1CCC3)CCC2 [Example 4, N-((3-(Diethylamino)propyl)sulfonyl)-2-(1,2,3,5,6,7-hexahydro-s-indacen-4-yl)acetamide]
> 5.30 | CC(C)c1cc(F)cc(C(C)C)c1CC(=O)NS(=O)(=O)N(C)C1CCN(C)C1 (centres unmarked) [Example 5, 2-(4-Fluoro-2,6-diisopropylphenyl)-N—(N-methyl-N-(1-methylpyrrolidin-3-yl)sulfamoyl)acetamide]
> 5.00 | CCN(CC)CCCS(=O)(=O)NC(=O)Cc1c(C(C)C)cc(F)cc1C(C)C [Example 6, N-((3-(Diethylamino)propyl)sulfonyl)-2-(4-fluoro-2,6-diisopropylphenyl)acetamide]
> 6.00 | COc1cc(-c2cc(F)cc(C(C)C)c2CC(=O)NS(=O)(=O)CC2(C#N)CCCCC2)ccn1 [Example 11]

Reference: US12168653B2, “Sulfonamide derivates as NLRP3 inhibitors” (Inflazome Limited, priority 2018, dated 2024)
